Results published in the kinase profiling compilation of Christmann-Franck et al. (2016).

Assays:
Assay in all cases: KINOMEscan competition binding
Settings in all cases: compound 10.0 µM
CDK18 (human) = CDK18 (human) (UniProt Q07002)
STK3 (human) = STK3 (human) (UniProt Q13188)
[1] = test system: FLT3 (human), P36888 [ITD]
IRAK3 (human) = IRAK3 (human) (UniProt Q9Y616)
MAP2K6 (human) = MAP2K6 (human) (UniProt P52564)
AXL (human) = AXL (human) (UniProt P30530)
ADCK4 (human) = ADCK4 (human) (UniProt Q96D53)
EPHA6 (human) = EPHA6 (human) (UniProt Q9UF33)
MKNK1 (human) = MKNK1 (human) (UniProt Q9BUB5)
[2] = molecular target: JAK1 JH1 catalytic (human) (UniProt P23458)
CDC42BPA (human) = CDC42BPA (human) (UniProt Q5VT25)
AAK1 (human) = AAK1 (human) (UniProt Q2M2I8)
DAPK2 (human) = DAPK2 (human) (UniProt Q9UIK4)
RIPK2 (human) = RIPK2 (human) (UniProt O43353)
EPHA5 (human) = EPHA5 (human) (UniProt P54756)
SGK110 (human) = SGK110 (human) (UniProt P0C264)
WEE1 (human) = WEE1 (human) (UniProt P30291)
PTK6 (human) = PTK6 (human) (UniProt Q13882)
PAK4 (human) = PAK4 (human) (UniProt O96013)
CSNK1G1 (human) = CSNK1G1 (human) (UniProt Q9HCP0)
ULK2 (human) = ULK2 (human) (UniProt Q8IYT8)
BRSK2 (human) = BRSK2 (human) (UniProt Q8IWQ3)
PDPK1 (human) = PDPK1 (human) (UniProt O15530)
MLTK (human) = MLTK (human) (UniProt Q9NYL2)
DCLK2 (human) = DCLK2 (human) (UniProt Q8N568)
TEK (human) = TEK (human) (UniProt Q02763)
CIT (human) = CIT (human) (UniProt O14578)
MAPK3 (human) = MAPK3 (human) (UniProt P27361)
IKBKE (human) = IKBKE (human) (UniProt Q14164)
ITK (human) = ITK (human) (UniProt Q08881)
STK32B (human) = STK32B (human) (UniProt Q9NY57)
WEE2 (human) = WEE2 (human) (UniProt P0C1S8)
ULK1 (human) = ULK1 (human) (UniProt O75385)
[3] = test system: FLT3 (human), P36888 [N841I]
MAP3K4 (human) = MAP3K4 (human) (UniProt Q9Y6R4)
MAP3K7 (human) = MAP3K7 (human) (UniProt O43318)
CDK8 (human) = CDK8 (human) (UniProt P49336)
NTRK3 (human) = NTRK3 (human) (UniProt Q16288)
MARK2 (human) = MARK2 (human) (UniProt Q7KZI7)
TEC (human) = TEC (human) (UniProt P42680)

Chain of MAP3K4 (human) (Q9Y6R4 whole entry, looked up): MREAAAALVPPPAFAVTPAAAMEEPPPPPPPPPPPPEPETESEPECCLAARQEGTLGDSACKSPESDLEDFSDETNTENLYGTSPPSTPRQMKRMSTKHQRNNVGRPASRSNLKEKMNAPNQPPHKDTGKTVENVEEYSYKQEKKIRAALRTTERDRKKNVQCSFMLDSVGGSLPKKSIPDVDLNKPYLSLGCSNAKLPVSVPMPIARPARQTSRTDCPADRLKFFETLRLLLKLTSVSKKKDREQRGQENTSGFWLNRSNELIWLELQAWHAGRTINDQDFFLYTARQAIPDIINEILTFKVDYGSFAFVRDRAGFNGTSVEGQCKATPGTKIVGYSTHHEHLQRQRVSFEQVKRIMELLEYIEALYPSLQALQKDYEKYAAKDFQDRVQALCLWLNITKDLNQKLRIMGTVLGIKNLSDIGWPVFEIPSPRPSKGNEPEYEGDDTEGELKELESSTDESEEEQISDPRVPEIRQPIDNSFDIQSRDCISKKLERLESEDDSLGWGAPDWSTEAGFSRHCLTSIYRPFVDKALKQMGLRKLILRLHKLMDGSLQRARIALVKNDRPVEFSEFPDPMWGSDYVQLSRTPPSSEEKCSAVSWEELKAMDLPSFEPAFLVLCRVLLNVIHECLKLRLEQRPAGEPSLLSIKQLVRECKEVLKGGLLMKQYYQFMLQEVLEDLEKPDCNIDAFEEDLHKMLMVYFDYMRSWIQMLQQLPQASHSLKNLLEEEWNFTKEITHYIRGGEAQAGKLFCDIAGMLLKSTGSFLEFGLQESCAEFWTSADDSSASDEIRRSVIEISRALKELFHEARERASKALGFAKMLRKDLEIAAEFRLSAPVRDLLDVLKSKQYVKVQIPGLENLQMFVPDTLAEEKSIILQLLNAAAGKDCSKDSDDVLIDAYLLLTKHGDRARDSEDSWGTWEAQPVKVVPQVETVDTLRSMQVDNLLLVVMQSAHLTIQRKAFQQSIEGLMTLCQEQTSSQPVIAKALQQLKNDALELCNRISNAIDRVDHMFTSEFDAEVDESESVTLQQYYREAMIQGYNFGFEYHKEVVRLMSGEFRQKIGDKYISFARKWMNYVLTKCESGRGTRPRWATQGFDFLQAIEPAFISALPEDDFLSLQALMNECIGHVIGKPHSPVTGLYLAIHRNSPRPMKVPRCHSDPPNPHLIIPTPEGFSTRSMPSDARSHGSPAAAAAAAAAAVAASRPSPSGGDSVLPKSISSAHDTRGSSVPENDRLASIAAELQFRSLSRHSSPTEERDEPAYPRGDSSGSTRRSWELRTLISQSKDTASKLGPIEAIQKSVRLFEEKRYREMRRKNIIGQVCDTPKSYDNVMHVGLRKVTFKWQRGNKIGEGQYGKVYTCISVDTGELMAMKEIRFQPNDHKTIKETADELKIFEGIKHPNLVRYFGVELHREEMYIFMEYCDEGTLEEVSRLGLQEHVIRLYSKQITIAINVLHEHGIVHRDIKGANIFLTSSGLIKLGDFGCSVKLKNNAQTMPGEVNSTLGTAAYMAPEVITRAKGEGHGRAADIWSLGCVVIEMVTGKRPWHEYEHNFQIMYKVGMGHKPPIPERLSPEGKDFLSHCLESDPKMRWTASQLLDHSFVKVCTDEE
Chain of PDPK1 (human) (O15530 whole entry, looked up): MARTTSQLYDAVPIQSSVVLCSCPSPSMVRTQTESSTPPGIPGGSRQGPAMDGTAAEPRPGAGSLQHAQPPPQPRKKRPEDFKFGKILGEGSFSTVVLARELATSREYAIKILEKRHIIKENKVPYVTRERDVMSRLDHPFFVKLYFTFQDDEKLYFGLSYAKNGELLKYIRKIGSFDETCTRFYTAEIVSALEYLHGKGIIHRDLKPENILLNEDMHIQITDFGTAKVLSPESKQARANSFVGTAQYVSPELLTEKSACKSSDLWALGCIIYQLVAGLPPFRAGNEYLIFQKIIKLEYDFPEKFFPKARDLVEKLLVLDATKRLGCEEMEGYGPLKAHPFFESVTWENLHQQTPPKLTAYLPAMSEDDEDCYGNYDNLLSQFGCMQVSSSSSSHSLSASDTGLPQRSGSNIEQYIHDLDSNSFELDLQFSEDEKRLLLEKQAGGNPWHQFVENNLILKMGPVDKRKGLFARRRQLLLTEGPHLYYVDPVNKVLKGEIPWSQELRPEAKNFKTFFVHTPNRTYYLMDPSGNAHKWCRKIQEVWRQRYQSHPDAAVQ
Chain of IKBKE (human) (Q14164 whole entry, looked up): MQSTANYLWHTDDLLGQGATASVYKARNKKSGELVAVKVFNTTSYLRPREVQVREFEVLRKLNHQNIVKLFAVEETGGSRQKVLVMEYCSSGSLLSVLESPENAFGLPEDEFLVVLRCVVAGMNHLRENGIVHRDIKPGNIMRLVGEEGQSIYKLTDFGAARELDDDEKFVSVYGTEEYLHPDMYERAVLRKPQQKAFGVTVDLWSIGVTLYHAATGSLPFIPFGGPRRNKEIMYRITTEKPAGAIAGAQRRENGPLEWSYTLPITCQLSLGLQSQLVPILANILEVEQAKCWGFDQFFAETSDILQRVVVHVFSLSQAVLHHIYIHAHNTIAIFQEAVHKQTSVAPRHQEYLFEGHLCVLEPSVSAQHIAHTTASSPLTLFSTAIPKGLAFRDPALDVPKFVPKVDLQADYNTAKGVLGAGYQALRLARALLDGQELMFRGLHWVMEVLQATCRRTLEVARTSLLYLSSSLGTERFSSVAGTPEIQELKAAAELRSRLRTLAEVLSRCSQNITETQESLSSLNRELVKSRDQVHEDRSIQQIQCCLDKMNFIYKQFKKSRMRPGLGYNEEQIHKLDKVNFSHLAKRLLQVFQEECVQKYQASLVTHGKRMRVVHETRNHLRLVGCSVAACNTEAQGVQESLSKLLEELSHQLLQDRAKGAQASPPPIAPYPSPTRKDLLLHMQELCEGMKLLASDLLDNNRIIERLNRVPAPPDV
Chain of MAP2K6 (human) (P52564 whole entry, looked up): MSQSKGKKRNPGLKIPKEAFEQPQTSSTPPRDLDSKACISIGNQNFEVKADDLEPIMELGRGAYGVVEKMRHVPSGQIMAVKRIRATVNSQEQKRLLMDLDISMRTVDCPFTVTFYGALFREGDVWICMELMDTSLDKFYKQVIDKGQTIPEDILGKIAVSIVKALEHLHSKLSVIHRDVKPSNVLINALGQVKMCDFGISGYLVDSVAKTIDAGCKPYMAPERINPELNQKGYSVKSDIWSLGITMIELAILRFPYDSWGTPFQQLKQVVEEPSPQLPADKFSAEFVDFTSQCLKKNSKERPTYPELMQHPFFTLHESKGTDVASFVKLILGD
Chain of STK3 (human) (Q13188 whole entry, looked up): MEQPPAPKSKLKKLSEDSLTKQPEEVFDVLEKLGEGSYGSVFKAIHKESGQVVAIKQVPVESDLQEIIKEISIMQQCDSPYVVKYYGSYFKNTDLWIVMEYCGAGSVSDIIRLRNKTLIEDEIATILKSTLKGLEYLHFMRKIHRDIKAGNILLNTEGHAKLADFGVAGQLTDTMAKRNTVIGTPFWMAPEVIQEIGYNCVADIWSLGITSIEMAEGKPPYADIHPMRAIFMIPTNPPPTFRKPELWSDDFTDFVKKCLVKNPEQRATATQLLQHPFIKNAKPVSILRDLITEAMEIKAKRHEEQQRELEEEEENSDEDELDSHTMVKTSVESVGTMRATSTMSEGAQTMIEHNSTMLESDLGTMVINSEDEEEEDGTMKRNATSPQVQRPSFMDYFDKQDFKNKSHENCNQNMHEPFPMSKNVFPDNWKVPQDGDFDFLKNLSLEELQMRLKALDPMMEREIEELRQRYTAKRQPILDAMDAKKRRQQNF
Chain of PAK4 (human) (O96013 whole entry, looked up): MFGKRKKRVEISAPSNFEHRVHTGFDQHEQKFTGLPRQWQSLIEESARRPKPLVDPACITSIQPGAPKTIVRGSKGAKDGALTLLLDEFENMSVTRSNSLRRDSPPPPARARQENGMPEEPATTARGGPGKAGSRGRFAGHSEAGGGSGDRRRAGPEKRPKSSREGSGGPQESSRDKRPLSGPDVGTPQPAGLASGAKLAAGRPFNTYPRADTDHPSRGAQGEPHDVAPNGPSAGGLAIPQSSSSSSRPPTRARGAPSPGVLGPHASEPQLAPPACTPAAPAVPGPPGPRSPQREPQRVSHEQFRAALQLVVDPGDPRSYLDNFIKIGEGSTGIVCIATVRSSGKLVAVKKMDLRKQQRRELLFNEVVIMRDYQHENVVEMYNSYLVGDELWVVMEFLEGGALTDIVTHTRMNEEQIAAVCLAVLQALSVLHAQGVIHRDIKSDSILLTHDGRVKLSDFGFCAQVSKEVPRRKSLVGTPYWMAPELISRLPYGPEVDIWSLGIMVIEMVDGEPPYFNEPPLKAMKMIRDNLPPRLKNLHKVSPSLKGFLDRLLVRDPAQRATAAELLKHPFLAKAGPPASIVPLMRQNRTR
Chain of ITK (human) (Q08881 whole entry, looked up): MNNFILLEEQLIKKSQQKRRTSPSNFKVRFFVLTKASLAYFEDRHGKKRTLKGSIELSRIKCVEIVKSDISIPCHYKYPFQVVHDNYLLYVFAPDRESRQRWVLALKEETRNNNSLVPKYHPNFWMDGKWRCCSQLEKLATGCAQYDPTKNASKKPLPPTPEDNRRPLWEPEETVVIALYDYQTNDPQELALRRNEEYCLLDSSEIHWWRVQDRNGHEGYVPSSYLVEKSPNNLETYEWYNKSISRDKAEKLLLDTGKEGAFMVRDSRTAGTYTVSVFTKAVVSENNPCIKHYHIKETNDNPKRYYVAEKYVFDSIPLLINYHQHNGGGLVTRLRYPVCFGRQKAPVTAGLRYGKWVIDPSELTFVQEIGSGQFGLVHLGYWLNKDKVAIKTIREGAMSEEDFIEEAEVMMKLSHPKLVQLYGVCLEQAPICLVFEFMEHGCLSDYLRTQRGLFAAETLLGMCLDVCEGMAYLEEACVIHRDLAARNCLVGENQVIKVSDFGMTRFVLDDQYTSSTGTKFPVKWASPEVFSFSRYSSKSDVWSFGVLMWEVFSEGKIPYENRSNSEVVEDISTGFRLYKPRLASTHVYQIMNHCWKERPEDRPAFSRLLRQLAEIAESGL

| Structure (SMILES) | kinase still bound, per cent of control (CDK18 (human)) | kinase still bound, per cent of control (STK3 (human)) | kinase still bound, per cent of control [1] | kinase still bound, per cent of control (IRAK3 (human)) | kinase still bound, per cent of control (MAP2K6 (human)) | kinase still bound, per cent of control (AXL (human)) | kinase still bound, per cent of control (ADCK4 (human)) | kinase still bound, per cent of control (EPHA6 (human)) | kinase still bound, per cent of control (MKNK1 (human)) | kinase still bound, per cent of control [2] | kinase still bound, per cent of control (CDC42BPA (human)) | kinase still bound, per cent of control (AAK1 (human)) | kinase still bound, per cent of control (DAPK2 (human)) | kinase still bound, per cent of control (RIPK2 (human)) | kinase still bound, per cent of control (EPHA5 (human)) | kinase still bound, per cent of control (SGK110 (human)) | kinase still bound, per cent of control (WEE1 (human)) | kinase still bound, per cent of control (PTK6 (human)) | kinase still bound, per cent of control (PAK4 (human)) | kinase still bound, per cent of control (CSNK1G1 (human)) | further results |
| --- | --- | --- | --- | --- | --- | --- | --- | --- | --- | --- | --- | --- | --- | --- | --- | --- | --- | --- | --- | --- | --- |
| C=CC(=O)Nc1cccc(Oc2nc(Nc3ccc(N4CCN(C)CC4)cc3OC)ncc2Cl)c1 | 100% | 100% | 0.85% | 34% | 100% | 100% | 100% | 100% | 100% | 100% | 100% | 7% | 28% | 100% | 100% | 100% | 100% | 100% | 100% | 100% | kinase still bound, per cent of control (ULK2 (human)): 2%; kinase still bound, per cent of control (BRSK2 (human)): 100%; kinase still bound, per cent of control (PDPK1 (human)): 100%; kinase still bound, per cent of control (MLTK (human)): 100%; kinase still bound, per cent of control (DCLK2 (human)): 0.45%; kinase still bound, per cent of control (TEK (human)): 100%; kinase still bound, per cent of control (CIT (human)): 100%; kinase still bound, per cent of control (MAPK3 (human)): 100%; kinase still bound, per cent of control (IKBKE (human)): 100%; kinase still bound, per cent of control (ITK (human)): 0.55%; kinase still bound, per cent of control (STK32B (human)): 100%; kinase still bound, per cent of control (WEE2 (human)): 100%; kinase still bound, per cent of control (ULK1 (human)): 1.6%; kinase still bound, per cent of control [3]: 0.25%; kinase still bound, per cent of control (MAP3K4 (human)): 100%; kinase still bound, per cent of control (MAP3K7 (human)): 100%; kinase still bound, per cent of control (CDK8 (human)): 100%; kinase still bound, per cent of control (NTRK3 (human)): 100%; kinase still bound, per cent of control (MARK2 (human)): 100%; kinase still bound, per cent of control (TEC (human)): 6.6% |
| O=C(NC1CC1)c1cccc(-c2ccc3c(NC(=O)C4CC4)n[nH]c3c2)c1 | 58% | 100% | 30% | 69% | 55% | 54% | 88% | 100% | 69% | 100% | 87% | 10% | 87% | 72% | 95% | 100% | 84% | 97% | 79% | 85% | kinase still bound, per cent of control (ULK2 (human)): 77%; kinase still bound, per cent of control (BRSK2 (human)): 74%; kinase still bound, per cent of control (PDPK1 (human)): 81%; kinase still bound, per cent of control (MLTK (human)): 100%; kinase still bound, per cent of control (DCLK2 (human)): 100%; kinase still bound, per cent of control (TEK (human)): 54%; kinase still bound, per cent of control (CIT (human)): 89%; kinase still bound, per cent of control (MAPK3 (human)): 95%; kinase still bound, per cent of control (IKBKE (human)): 100%; kinase still bound, per cent of control (ITK (human)): 100%; kinase still bound, per cent of control (STK32B (human)): 100%; kinase still bound, per cent of control (WEE2 (human)): 100%; kinase still bound, per cent of control (ULK1 (human)): 100%; kinase still bound, per cent of control [3]: 33%; kinase still bound, per cent of control (MAP3K4 (human)): 93%; kinase still bound, per cent of control (MAP3K7 (human)): 56%; kinase still bound, per cent of control (CDK8 (human)): 76%; kinase still bound, per cent of control (NTRK3 (human)): 44%; kinase still bound, per cent of control (MARK2 (human)): 45%; kinase still bound, per cent of control (TEC (human)): 95% |
| CN(C)C/C=C/C(=O)Nc1cccc(Nc2ncc3c(n2)N(C)c2ccccc2C(=O)N3C)c1 | 100% | 0% | 9.4% | 44% | 95% | 7% | 100% | 91% | 38% | 2.8% | 100% | 20% | 69% | 18% | 99% | 0.25% | 100% | 37% | 61% | 47% | kinase still bound, per cent of control (ULK2 (human)): 0.2%; kinase still bound, per cent of control (BRSK2 (human)): 4.2%; kinase still bound, per cent of control (PDPK1 (human)): 86%; kinase still bound, per cent of control (MLTK (human)): 79%; kinase still bound, per cent of control (DCLK2 (human)): 0.5%; kinase still bound, per cent of control (TEK (human)): 35%; kinase still bound, per cent of control (CIT (human)): 86%; kinase still bound, per cent of control (MAPK3 (human)): 100%; kinase still bound, per cent of control (IKBKE (human)): 100%; kinase still bound, per cent of control (ITK (human)): 58%; kinase still bound, per cent of control (STK32B (human)): 100%; kinase still bound, per cent of control (WEE2 (human)): 97%; kinase still bound, per cent of control (ULK1 (human)): 0.15%; kinase still bound, per cent of control [3]: 9.2%; kinase still bound, per cent of control (MAP3K4 (human)): 73%; kinase still bound, per cent of control (MAP3K7 (human)): 6.2%; kinase still bound, per cent of control (CDK8 (human)): 100%; kinase still bound, per cent of control (NTRK3 (human)): 16%; kinase still bound, per cent of control (MARK2 (human)): 21%; kinase still bound, per cent of control (TEC (human)): 97% |
